{
  "source": "paper PMC11513854",
  "about": "“De novo GTP synthesis is a metabolic vulnerability for the interception of brain metastases” (Cell Reports Medicine, 2024)",
  "key": {"[1]": {"settings": "read-out: clinically relevant plasma Cmax concentration; cited from earlier work"}, "[2]": {"test_system": "primary lung CRUK0748 cell line", "experiment": "Orthotopic injection of CRUK0748, daily oral gavage treatment", "type": "in vivo, mice", "settings": "100 mg/kg daily oral gavage, vs placebo", "source_text": "Next, we injected mice orthotopically with the primary lung CRUK0748 cell line and treated them daily as described earlier (see Figure S3A).\nAll experimental procedures involving animal work has been reviewed and approved by McMaster University Animal Research Ethics Board. Non-obese diabetic-severe combined immunodeficient IL2r γ ^null (NSG) mice are used for all experiments. Equal numbers of male and female mice were used for all experiments. Healthy mice were 6–8 weeks at time of use. Mice are anesthetized by gas anesthesia using isoflurane (4% induction, 2.5% maintenance) before procedure. Cells were engineered to express firefly luciferase and were injected intracardially, orthotopically, or intracranially as previously described.[13]^,[14]^,[63]^,[64]^,[65] […] Mice are monitored weekly for signs of illness until endpoint.\nFig S3. MPA m ust cross the blood brain barrier to eff ectively slow the progression of BM over tim e, related to Figures 3 and 4. a, Mice were either orthotopically (intratho racically) or intracardiac injected with lung BMICs, […]\nseven days post-injection by IVIS, (c), no significant reduction in tumor burden following t reatment completion […]\nto placebo, but (f) had the same number of human cells detected in their brains following humane endpoint by flow cytometry. n.s. = not significant.\n(1 picture or pasted object on this page, not shown here)"}, "patient-derived BMICs": {"test_system": "patient-derived BMICs", "experiment": "Migration (wound healing) assay", "type": "cell-based, human", "settings": "IC80", "description": "Cells were plated at a density of 15,000 to 25,000 cells (depending upon the cell line) per 70 μL media supplemented with 10% FBS into two separate wells of a bi-silicon structure within a 48-well plate. The cells were allowed to adhere for 24 h at 37C within a humidified atmosphere of 5% CO2 to form a monolayer of cells. After 24 h the silicon inserts were detached from the 48-well plate, leaving behind two monolayers of cells that are separated by an empty ‘wound’ and enabling of cell migration into the exclusion zone. […] The plate was inserted into the Incucyte in vitro imaging system where the ‘wound’ was imaged periodically over time. The Incucyte scan type chosen was 300ms adherent cell-by-cell alongside phase and green imaging channels within a 10× objective. The images were uploaded to ImageJ where the wound area was calculated to determine the wound coverage percentage."}, "CRUK0748-BM": {"test_system": "CRUK0748-BM", "experiment": "Dose-response assay on CRUK0748-BM line", "type": "cell-based, human", "source_text": "To obtain a clinically relevant correlate to the data aforementioned, we acquired two patient-derived lung adenocarcinoma samples: one that was derived from a patient who developed BM following their primary lung tumor diagnosis (CRUK0748), and one that was derived from a patient who, to-date, has not developed BM (CRUK0733). BM-initiating capacity was confirmed in our PDX models (Figure S1C). We harvested the tagged CRUK0748 cells from the brains of mice and cultured them in stem cell-enrichment media conditions to derive a CRUK0748-BM line.\nDose-response assays were conducted using the same protocol apart from drugs being plated using 2-fold serial dilutions (20 μM - 39 nM) as previously described.[66] The half maximal inhibitory concentration (IC50) is determined by plotting percent cell viability by the logarithmic concentration of drug. IC80 concentrations will be used for subsequent functional assays (cell proliferation, sphere formation), as determined by the following formula: ICF=100−F/F^1/H×IC50 where F = fraction of maximal response and H = hill slope."}},
  "data": [
    {"smiles": "COc1c(C)c2c(c(O)c1C/C=C(\\C)CCC(=O)O)C(=O)OC2", "note": "[MPA, Mycophenolic acid]", "values": [
      {"measurement": "Cmax", "setting": "[1]", "value": 10, "unit": "µM"},
      {"measurement": "number of human cells detected in mouse brains", "setting": "[2]; humane endpoint, flow cytometry", "value": "no significant difference"},
      {"measurement": "survival", "setting": "[2]", "value": "survived significantly longer"},
      {"measurement": "migration of patient-derived BMICs", "setting": "patient-derived BMICs", "value": "inhibits the migration"},
      {"measurement": "BMIC proliferation, dose-response", "setting": "CRUK0748-BM", "value": "inhibits BMIC proliferation"}
    ]}
  ]
}
